Where two headings read alike, the source gives them in different places.
Columns and labels:
kochia (Bassia scoparia) = assay: Test A postemergence, kochia; format: in vivo; settings: Bassia scoparia, post-emergence, 240 h, Postemergence, 0 to 100 scale (0 no effect, 100 complete control); for pest or weed control at 125 g/ha: 125 g ai/ha; for pest or weed control at 500 g/ha: 500 g ai/ha
In short: (§1)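 Seeds are sown in loam mixed with sand and sprayed on the soil surface right after planting for the preemergence test. Postemergence pots are sprayed once seedlings reach 2 to 10 cm at the one- to two-leaf stage. The same surfactant-containing, non-phytotoxic solvent formulation serves both.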

[1] = test system: galium (catchweed bedstraw, Galium aparine); assay: Test A postemergence, galium; format: in vivo; settings: Galium, post-emergence, 240 h, Postemergence, 0 to 100 scale (0 no effect, 100 complete control); for pest or weed control at 125 g/ha: 125 g ai/ha; for pest or weed control at 500 g/ha: 500 g ai/ha
In short: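 Pots: loam soil/sand blend. Pre: directed soil spray at planting. Post: plants 2–10 cm, 1–2 leaf stage. Formulation: non-phytotoxic solvent + surfactant.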

rice (Oryza sativa) = assay: Test B flooded paddy test, rice; settings: 336 h, read-out: Plant response rating, Rice
[2] = test system: pigweed (Amaranthus retroflexus); assay: Test A postemergence, pigweed; format: in vivo; settings: Amaranthus retroflexus, post-emergence, 240 h, Postemergence, 0 to 100 scale (0 no effect, 100 complete control); for pest or weed control at 125 g/ha: 125 g ai/ha; for pest or weed control at 500 g/ha: 500 g ai/ha
In short: as §1

[3] = visual injury approx. 10 days, read-out: Plant response rating, Kochia
[4] = visual injury vs untreated controls after approx. 10 days, read-out: Kochia plant response rating
[5] = visual injury approx. 10 days, read-out: Plant response rating, Galium
[6] = visual injury vs untreated controls after approx. 10 days, read-out: Galium plant response rating
[7] = visual injury approx. 10 days, read-out: Plant response rating, Pigweed
[8] = visual injury vs untreated controls after approx. 10 days, read-out: Pigweed plant response rating
[9] = read-out: Plant response rating, Kochia
[10] = read-out: Plant response rating, Galium
[11] = read-out: Plant response rating, Pigweed
[12] = visual injury, approx. 10 days, read-out: Plant response rating, Kochia
[13] = visual injury, approx. 10 days, read-out: Plant response rating, Galium
[14] = visual injury, approx. 10 days, read-out: Plant response rating, Pigweed

SMILES | pest or weed control at 125 g/ha (kochia (Bassia scoparia); [3]) | pest or weed control at 500 g/ha (kochia (Bassia scoparia); [4]) | pest or weed control at 125 g/ha [1, 5] | pest or weed control at 500 g/ha [1, 6] | plant injury at 250 g/ha (rice (Oryza sativa)) | pest or weed control at 125 g/ha [2, 7] | pest or weed control at 500 g/ha [2, 8] | pest or weed control at 125 g/ha (kochia (Bassia scoparia); [9]) | pest or weed control at 125 g/ha [1, 10] | pest or weed control at 125 g/ha [2, 11] | pest or weed control at 500 g/ha (kochia (Bassia scoparia); [12]) | pest or weed control at 500 g/ha [1, 13] | pest or weed control at 500 g/ha [2, 14] | pest or weed control at 500 g/ha (kochia (Bassia scoparia); [3]) | pest or weed control at 500 g/ha [1, 5] | pest or weed control at 500 g/ha [2, 7]
Cc1cc(C)c(C2=NOC3COCCC23)cc1NS(=O)(=O)C(F)(F)F (stereo not drawn) [Compound 121, N-[2,4-Dimethyl-5-(3a,4,7,7a-tetrahydro-5H-pyrano[4,3-d]isoxazol-3-yl)phenyl]-1,1,1-trifluoromethanesulfonamide] | 50% | 80% | 90% | 90% | 20% | 70% | 90% |  |  |  |  |  |  |  |  | 
Cc1cc(C)c(N(COC(=O)C(C)(C)C)S(=O)(=O)C(F)(F)F)cc1C1=NO[C@@H]2CCC[C@H]12 [Compound 100, [[2,4-Dimethyl-5-[(3aR,6aR)-3a,5,6,6a-tetrahydro-4H-cyclopent[d]isoxazol-3-yl]phenyl][(trifluoromethyl)sulfonyl]amino]methyl 2,2-dimethylpropanoate] | 60% | 90% | 80% | 90% | 20% | 60% | 90% |  |  |  |  |  |  |  |  | 
Cc1cc(C)c(C2=NOC3(CCCCC3)C2)cc1NS(=O)(=O)C(F)(F)F [Compound 197, N-[2,4-Dimethyl-5-(1-oxa-2-azaspiro[4.5]dec-2-en-3-yl)phenyl]-1,1,1-trifluoromethanesulfonamide] |  | 80% |  | 90% | 0% |  | 90% | 50% | 90% | 60% |  |  |  |  |  | 
Cc1cc(C)c(C2=NO[C@@H]3CCC[C@H]23)cc1NS(=O)(=O)C(F)(F)F [Compound 103, N-[2,4-Dimethyl-5-[(3aR,6aR)-3a,5,6,6a-tetrahydro-4H-cyclopent[d]isoxazol-3-yl]phenyl]-1,1,1-trifluoromethanesulfonamide] | 70% | 80% | 90% | 100% | 25% | 80% | 80% |  |  |  |  |  |  |  |  | 
Cc1c(NS(=O)(=O)C(F)(F)F)cc(C(=O)N2CCOCC2)c(C)c1F [Compound 190, 1,1,1-Trifluoro-N-[3-fluoro-2,4-dimethyl-5-(4-morpholinylcarbonyl)phenyl]methanesulfonamide] |  | 70% |  | 90% | 0% |  | 100% | 30% | 70% | 70% |  |  |  |  |  | 
Cc1cc(Cl)c(NS(=O)(=O)C(F)(F)F)cc1C(=O)N1CCCCC1 [Compound 18, N-[2-Chloro-4-methyl-5-(1-piperidinylcarbonyl)phenyl]-1,1,1-trifluoromethanesulfonamide] | 10% |  | 80% |  | 0% | 40% |  |  |  |  | 40% | 80% | 90% |  |  | 
Cc1cc(C)c(C2=NOC3CCOCC23)cc1NS(=O)(=O)C(F)(F)F (stereo not drawn) [Compound 120, N-[2,4-Dimethyl-5-(3a,6,7,7a-tetrahydro-4H-pyrano[3,4-d]isoxazol-3-yl)phenyl]-1,1,1-trifluoromethanesulfonamide] | 70% | 90% | 90% | 90% | 0% | 60% | 90% |  |  |  |  |  |  |  |  | 
Cc1cc(Cl)c(NS(=O)(=O)C(F)(F)F)cc1C(=O)N1CCC(F)(F)CC1 [Compound 229, N-[2-Chloro-5-[(4,4-difluoro-1-piperidinyl)carbonyl]-4-methylphenyl]-1,1,1-trifluoromethanesulfonamide] |  | 90% |  | 90% | 10% |  | 100% | 60% | 90% | 80% |  |  |  |  |  | 
Cc1c(NS(=O)(=O)C(F)(F)F)cc(C(=O)N(C)C)c(C)c1F [Compound 128, 3-Fluoro-N,N,2,4-tetramethyl-5-[[(trifluoromethyl)sulfonyl]amino]benzamide] | 30% | 70% | 80% | 90% | 0% | 60% | 90% |  |  |  |  |  |  |  |  | 
CCc1cc(-c2cc(NS(=O)(=O)C(F)(F)F)c(C)cc2C)c(=O)n(C)n1 [Compound 34, N-[5-(6-Ethyl-2,3-dihydro-2-methyl-3-oxo-4-pyridazinyl)-2,4-dimethylphenyl]-1,1,1-trifluoromethanesulfonamide] | 30% |  | 10% |  | 0% | 0% |  |  |  |  | 50% | 0% | 0% |  |  | 
Cc1cc(C)c(N(COC(=O)C(C)(C)C)S(=O)(=O)C(F)(F)F)cc1C1=NOC2(CCCCC2)C1 [Compound 159, [[2,4-Dimethyl-5-(1-oxa-2-azaspiro[4.5]dec-2-en-3-yl)phenyl][(trifluoromethyl)sulfonyl]amino]methyl 2,2-dimethylpropanoate] |  | 40% |  | 90% | 0% |  | 70% | 20% | 80% | 40% |  |  |  |  |  | 
Cc1cc(C)c(C2=NOC3(CCCC3)C2)cc1NS(=O)(=O)C(F)(F)F [Compound 207, N-[2,4-Dimethyl-5-(1-oxa-2-azaspiro[4.4]non-2-en-3-yl)phenyl]-1,1,1-trifluoromethanesulfonamide] |  | 60% |  | 70% | 0% |  | 70% | 20% | 50% | 50% |  |  |  |  |  | 
Cc1cc(C)c(C(=O)N2CCC(F)(F)CC2)cc1NS(=O)(=O)C(F)(F)F [Compound 241, N-[5-[(4,4-Difluoro-1-piperidinyl)carbonyl]-2,4-dimethylphenyl]-1,1,1-trifluoromethanesulfonamide] |  |  |  |  | 25% |  |  | 60% | 80% | 60% |  |  |  | 90% | 90% | 80%
Cc1cc(C)c(N(COC(=O)C(C)(C)C)S(=O)(=O)C(F)(F)F)cc1C1=NOC2(CCCC2)C1 [Compound 140, [[2,4-Dimethyl-5-(1-oxa-2-azaspiro[4.4]non-2-en-3-yl)phenyl][(trifluoromethyl)sulfonyl]amino]methyl 2,2-dimethylpropanoate] | 10% | 60% | 50% | 70% | 0% |  | 80% |  |  | 10% |  |  |  |  |  | 
Cc1cc(Cl)c(NS(=O)(=O)C(F)(F)F)cc1C(=O)N1CCOCC1 [Compound 16, N-[2-Chloro-4-methyl-5-(4-morpholinylcarbonyl)phenyl]-1,1,1-trifluoromethanesulfonamide] | 40% |  | 80% |  | 0% | 70% |  |  |  |  | 80% | 90% | 90% |  |  | 
